Results on 13 molecules are retold here after PubChem BioAssay (NCI).

What all share (assay): DTP human tumour cell line panel, 48 h
Assay [1] has as its system HCT-116 colon.
The test system of assay [2] is M14 melanoma.
Assay [3] deals with NCI-H226 lung.
For assay [4], the system named is HCT-15 colon.
Assay [5] concerns SNB-75 CNS.
For assay [6], the system named is KM12 colon.
For assay [7], the system named is U251 CNS.
Assay [8] has as its system A498 renal.
In assay [9] the test system is SR leukemia.
For assay [10], the system named is CAKI-1 renal.

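How tested: cells in 96-well plates exposed to compound for 48 hours at five concentrations. TGI: concentration producing complete growth inhibition.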

As to `O=C(CCn1ccnc1[N+](=O)[O-])NCCCn1ccnc1[N+](=O)[O-]`, the TGI in assay [1], in assay [2], in assay [3], in assay [4], in assay [5] and in [6] was > 100 µM throughout. In addition, the TGI in assay [7], in [8], in assay [9] and in assay [10] was > 100 µM each time.
`Oc1cc(Cl)cc2cccnc12`: the TGI (commonly the concentration giving total growth inhibition) was > 23.3 µM in assay [1]; > 37.4 µM in assay [2]; 69.6 µM in assay [3]; > 100 µM in assay [4]; > 100 µM in assay [5]; > 100 µM in assay [6]. Further, the TGI in [7] is > 47.9 µM; in [8] it was 59.6 µM; in [9] it was 4.27 µM; in assay [10] it was > 100 µM.
With `O=C1c2cc(-c3ccccc3)cnc2S(=O)(=O)N1c1ccc(Br)cc1`, the TGI in assay [1] is > 100 µM; in [2], > 100 µM; in [3], > 100 µM; in assay [4], > 100 µM; in assay [5], 78.8 µM; in [6], > 100 µM. Further, the TGI in [7] was 90.3 µM; in [8] it was > 100 µM; in assay [9] it was 35 µM; in assay [10], > 100 µM.
In the case of `Nc1ccc(N=Nc2c(S(=O)(=O)O)cc3ccccc3c2S(=O)(=O)O)cc1`, the TGI in assay [1], in assay [2], in [3], in assay [4], in assay [5] and in assay [6] was > 100 µM each time. Also, the TGI in assay [7], in [8], in assay [9] and in assay [10] was > 100 µM throughout.
In the case of `Cc1nn(-c2ccccc2)c2c1C(c1cc3ccccc3nc1Cl)NC(=O)N2` (stereo not given), the TGI in [1] is 84.6 µM; in [2], 42.4 µM; in assay [3] it was 60.1 µM; in assay [4] it was 48.1 µM; in assay [5], 50.2 µM; in assay [6], 53.1 µM. Besides, the TGI in assay [7] was 38.2 µM; in assay [8], 62 µM; in assay [9], > 100 µM; in assay [10], > 100 µM.
In the case of `N#CC(C#N)=C1SC(=Nc2ccccc2)C(=Nc2ccccc2)N1c1ccccc1`, the TGI in [1] is 32.7 µM; in [2], 54.7 µM; in assay [3], 44.7 µM; in assay [4], 6.3 µM; in assay [5], > 100 µM; in [6], > 53.8 µM. The TGI in assay [7] is 41 µM; in assay [8], > 92.2 µM; in assay [9] it was > 26.2 µM; in assay [10] it was > 56.3 µM.
Turning to `CC(=O)NC1C(OCc2ccccc2)OC(CO)C(O)C1OCC(=O)N[C@@H](C)C(=O)N[C@H](CCC(=O)NCCCNc1c2ccccc2nc2cccc([N+](=O)[O-])c12)C(N)=O` (stereo not given in full), the TGI amounted to 0.034 µM in assay [1]; 0.209 µM in assay [2]; 0.287 µM in assay [3]; 0.376 µM in assay [4]; 0.362 µM in [5]; 0.397 µM in assay [6]. The TGI in assay [7] is 4.46 µM; in assay [8] it was 0.944 µM; in assay [9], 46.7 µM; in [10], 0.334 µM.
Regarding `Cc1nc(C)c(N2CCN([N+](=O)[O-])CC2)c(=O)[nH]1`, the TGI in assay [1] is > 100 µM; in assay [2], > 100 µM; in assay [3], > 100 µM; in assay [4], > 100 µM; in assay [5], 0.611 µM; in [6] it was > 100 µM. The TGI in assay [7], in assay [8], in assay [9] and in [10] was > 100 µM in each case.
Turning to `O=[N+]([O-])C(=C(Nc1cccc2cccnc12)Nc1cccc2cccnc12)C(Cl)=C(Cl)Cl`, the TGI in assay [1], in assay [2], in [3], in assay [4], in assay [5] and in assay [6] was > 100 µM throughout. For the same molecule, the TGI in assay [7] is > 100 µM; in assay [8], > 100 µM; in assay [9], > 100 µM; in assay [10], > 92.2 µM.
Consider `Clc1ccc(-c2nnc3sc4nc5ccccc5c-4nn23)c(Cl)c1`, for which the TGI in assay [1], in assay [2], in assay [3], in assay [4], in assay [5] and in assay [6] was > 100 µM each time. The TGI in assay [7], in assay [8], in [9] and in [10] was > 100 µM in each case.
As for `Cc1cc(/N=C/c2ccc(N(C)C)cc2)n(-c2ccccc2)n1`, the TGI in assay [1], in [2], in assay [3], in assay [4], in assay [5] and in assay [6] was > 100 µM each time. For the same molecule, the TGI was > 100 µM in [7], 84.5 µM in [8], > 100 µM in assay [9] and > 100 µM in assay [10].
As to `O=C(O)CN1CCN2CCCCCN(CC1)CCN(CC(=O)O)CC2`, the TGI in [1] is > 100 µM; in assay [2], > 100 µM; in assay [3], > 100 µM; in assay [4], > 100 µM; in assay [5] it was 95.3 µM; in assay [6], > 100 µM. Further, the TGI in assay [7], in [8], in [9] and in assay [10] was > 100 µM throughout.
Consider `O=S(=O)(O)C(CO)c1ccccc1` (stereo not given) (tested in a mixture with another compound), for which the TGI in assay [1], in [2], in [3], in assay [4], in assay [5] and in [6] was > 100 µM each time. Besides, the TGI in [7], in assay [8], in assay [9] and in assay [10] was > 100 µM each time.
